Measurements taken from article PMC5862516 (PLoS Neglected Tropical Diseases, 2018).
Where two headings read alike, the source gives them in different places.

Columns and labels:
SOSV minigenome [1] = experiment: microbe, parasite or virus in culture; conditions: Sosuga virus; for activity at 0.05 µM / activity at 0.5 µM / activity at 5 µM: Huh-7, 72 h, read-out: Minigenome activity (Relative ZsG fluorescence); for EC50: Huh-7, read-out: Minigenome Screen EC50
in vitro = conditions: human
rSOSV/ZsG = experiment: microbe, parasite or virus in culture; assay type: cell-based; conditions: Sosuga virus, Huh-7, read-out: rSOSV/ZsG Screen EC50
rSOSV = experiment: microbe, parasite or virus in culture; assay type: cell-based; conditions: Sosuga virus, Huh-7, 48 h, read-out: EC50 (rSOSV protein immunofluorescence)
SOSV minigenome [2] = conditions: Huh7 cells; for Minigenome activity (Relative ZsG fluorescence): relative to mock-treated controls
[3] = human, in vivo, 125 mg/kg/day; cited from earlier work
Huh7 cells = conditions: human

Row | SMILES | activity at 0.05 µM (SOSV minigenome [1]) [%] | activity at 0.5 µM (SOSV minigenome [1]) [%] | activity at 5 µM (SOSV minigenome [1]) [%] | also measured
1 | Nc1nc(Cl)nc2c1ncn2[C@@H]1O[C@H](CO)[C@@H](O)[C@H]1O [2-Chloroadenosine] | 148 | 143 | 145 | –
2 | C[C@@]1(O)[C@H](O)[C@@H](CO)O[C@H]1n1ccc(N)nc1=O [2′-C-Methylcytidine] | 124 | 104 | 114 | –
3 | C[C@@]1(O)[C@H](O)[C@@H](CO)O[C@H]1n1ccc(=O)[nH]c1=O [2′-C-Methyluridine] | 132 | 101 | 125 | –
4 | CO[C@@H]1[C@H](O)[C@@H](CO)O[C@H]1n1ccc(N)nc1=O [2′-O-Methylcytidine] | 129 | 104 | 119 | –
5 | CO[C@@H]1[C@H](O)[C@@H](CO)O[C@H]1n1ccc(=O)[nH]c1=O [2′-O-Methyluridine] | 150 | 104 | 142 | –
6 | Nc1ccn([C@@H]2O[C@H](CO)[C@@H](O)[C@H]2F)c(=O)n1 [2′-deoxy-2′-fluorocytidine] | 141 | 91 | 13 | EC50 (SOSV minigenome [1]): 1.31 ± 0.15 µM; viability (in vitro): > 80%; CC50 (in vitro): > 50 µM; EC50 (rSOSV/ZsG): 1.48 ± 0.22 µM; EC50 (rSOSV): 4.09 µM
7 | Nc1ncn([C@@H]2O[C@H](CO)[C@@H](O)[C@H]2O)c(=O)n1 [5-Azacytidine] | 146 | 111 | 108 | –
8 | [N-]=[N+]=Nc1cn([C@@H]2O[C@H](CO)[C@@H](O)[C@H]2O)c(=O)[nH]c1=O [5-Azidouridine] | 114 | 104 | 107 | –
9 | O=c1[nH]c(=O)n([C@@H]2O[C@H](CO)[C@@H](O)[C@H]2O)cc1Br [5-Bromouridine] | 97 | 92 | 122 | –
10 | O=c1[nH]c(=O)n([C@@H]2O[C@H](CO)[C@@H](O)[C@H]2O)cc1Cl [5-Chlorouridine] | 119 | 125 | 146 | –
11 | Cc1cn([C@@H]2O[C@H](CO)[C@@H](O)[C@H]2O)c(=O)nc1N [5-Methylcytidine] | 124 | 110 | 125 | –
12 | O=c1[nH]c(=O)n([C@@H]2O[C@H](CO)[C@@H](O)[C@H]2O)cc1F [5-fluorouridine] | 112 | 25 | 10 | Extent of minigenome signal inhibition and cytotoxicity (SOSV minigenome [2]; dose-response analysis): did not completely inhibit minigenome signal even at the highest concentrations evaluated; EC50 (SOSV minigenome [1]): 0.29 ± 0.13 µM; viability (in vitro): > 80%; CC50 (in vitro): > 50 µM
13 | O=c1cnn([C@@H]2O[C@H](CO)[C@@H](O)[C@H]2O)c(=S)[nH]1 [6-Aza-2-thiouridine] | 128 | 95 | 110 | –
14 | CC(=O)OC[C@H]1O[C@@H](n2ncc(=O)[nH]c2=O)[C@H](OC(C)=O)[C@@H]1OC(C)=O [6-azauridine triacetate] | – | – | – | plasma concentrations [3]: ≥ 100 µM
15 | O=c1cnn([C@@H]2O[C@H](CO)[C@@H](O)[C@H]2O)c(=O)[nH]1 [6-azauridine] | 120 | 103 | 46 | EC50 (SOSV minigenome [1]): 5.17 ± 1.01 µM; viability (in vitro): > 80%; CC50 (in vitro): > 50 µM; EC50 (rSOSV/ZsG): 7.99 ± 1.32 µM; EC50 (rSOSV): 8.9 µM
16 | C[C@@]1(O)[C@H](O)[C@@H](CO)O[C@H]1n1ccc2c(N)ncnc21 [7-DMA] | – | – | – | Minigenome activity (Relative ZsG fluorescence) (SOSV minigenome [2]; 50 nM): 1.26; Minigenome activity (Relative ZsG fluorescence) (SOSV minigenome [2]; 500 nM): 1.02; Minigenome activity (Relative ZsG fluorescence) (SOSV minigenome [2]; 5000 nM): 1.06
17 | Nc1ncnc2c1nnn2[C@@H]1O[C@H](CO)[C@@H](O)[C@H]1O [8-Azaadenosine] | 146 | 85 | 2 | –

Row | SMILES | activity at 0.05 µM (SOSV minigenome [1]) [%] | activity at 0.5 µM (SOSV minigenome [1]) [%] | activity at 5 µM (SOSV minigenome [1]) [%] | also measured
18 | [N-]=[N+]=Nc1nc2c(N)ncnc2n1[C@@H]1O[C@H](CO)[C@@H](O)[C@H]1O [8-Azidoadenosine] | 120 | 122 | 1 | –
19 | COc1c(-c2ccc3cc(NS(C)(=O)=O)ccc3c2)cc(-n2ccc(=O)[nH]c2=O)cc1C(C)(C)C [ABT-333] | 127 | 108 | 105 | –
20 | CC[C@H]1OC(=O)[C@H](C)[C@@H](O[C@H]2C[C@@](C)(OC)[C@@H](O)[C@H](C)O2)[C@H](C)[C@@H](O[C@@H]2O[C@H](C)C[C@H](N(C)C)[C@H]2O)[C@](C)(O)C[C@@H](C)CN(C)[C@H](C)[C@@H](O)[C@]1(C)O [Azithromycin] | 102 | 106 | 111 | –
21 | Nc1ncnc2c([C@@H]3N[C@H](CO)[C@@H](O)[C@H]3O)c[nH]c12 [BCX-4430] | 133 | 105 | 118 | –
22 | CC(C)C(=O)OC[C@@]1(N=[N+]=[N-])O[C@@H](n2ccc(N)nc2=O)[C@H](OC(=O)C(C)C)[C@@H]1OC(=O)C(C)C [Balapiravir (R1626), Balapiravir] | 105 | 93 | 90 | –
23 | Nc1ncnc2c1ncn2[C@@H]1O[C@H](CO)C[C@H]1O [Cordycepin] | 128 | 104 | 101 | –
24 | COc1c(C)c2c(c(O)c1C/C=C(\C)CCC(=O)O)C(=O)OC2 [Mycophenolic acid] | 89 | 14 | 1 | Minigenome Screen EC50 (SOSV minigenome [2]; ZsG fluorescence 72 hpt, normalized to mock-treated (DMSO) cells, listed as MPA): sub-micromolar; CC50 (Huh7 cells): 1.74 ± 0.42 µM; viability (in vitro): > 80%; CC50 (in vitro): 1.7 µM; EC50 (rSOSV/ZsG): 0.33 ± 0.04 µM; EC50 (rSOSV): 0.48 µM
25 | C#C[C@@]1(O)[C@H](O)[C@@H](CO)O[C@H]1n1ccc2c(N)ncnc21 [NITD008] | – | – | – | Minigenome activity (Relative ZsG fluorescence) (SOSV minigenome [2]; 50 nM): 1.35; Minigenome activity (Relative ZsG fluorescence) (SOSV minigenome [2]; 500 nM): 1.07; Minigenome activity (Relative ZsG fluorescence) (SOSV minigenome [2]; 5000 nM): 1.13
26 | C[C@@]1(F)[C@H](O)[C@@H](CO)O[C@H]1n1ccc(N)nc1=O [PSI-6130] | – | – | – | Minigenome activity (Relative ZsG fluorescence) (SOSV minigenome [2]; 50 nM): 0.84; Minigenome activity (Relative ZsG fluorescence) (SOSV minigenome [2]; 500 nM): 0.85; Minigenome activity (Relative ZsG fluorescence) (SOSV minigenome [2]; 5000 nM): 0.91
27 | CC(C)OC(=O)[C@H](C)N[P@](=O)(OC[C@H]1O[C@@H](n2ccc(=O)[nH]c2=O)[C@](C)(F)[C@@H]1O)Oc1ccccc1 [PSI-7977] | 102 | 102 | 89 | –
28 | [N-]=[N+]=N[C@]1(CO)O[C@@H](n2ccc(N)nc2=O)[C@H](O)[C@@H]1O [R-1479] | – | – | – | Minigenome activity (Relative ZsG fluorescence) (SOSV minigenome [2]; 50 nM): 0.91; Minigenome activity (Relative ZsG fluorescence) (SOSV minigenome [2]; 500 nM): 0.84; Minigenome activity (Relative ZsG fluorescence) (SOSV minigenome [2]; 5000 nM): 0.73
29 | CC(C)C(=O)OC[C@H]1O[C@@H](n2ccc(N)nc2=O)[C@](C)(F)[C@@H]1OC(=O)C(C)C [R-7128] | – | – | – | Minigenome activity (Relative ZsG fluorescence) (SOSV minigenome [2]; 50 nM): 0.84; Minigenome activity (Relative ZsG fluorescence) (SOSV minigenome [2]; 500 nM): 0.87; Minigenome activity (Relative ZsG fluorescence) (SOSV minigenome [2]; 5000 nM): 0.99
30 | NC(=O)c1ncn([C@@H]2O[C@H](CO)[C@@H](O)[C@H]2O)n1 [Ribavirin] | 136 | 113 | 78 | EC50 (SOSV minigenome [1]): 5.91 ± 0.85 µM; CC50 (in vitro): > 50 µM; EC50 (rSOSV/ZsG): 6.1 ± 0.09 µM
31 | Cc1cn([C@H]2C=C[C@@H](CO)O2)c(=O)[nH]c1=O [Stavudine] | 126 | 104 | 115 | –
32 | NC(=O)c1nc(F)cnc1O [T-705] | – | – | – | Minigenome activity (Relative ZsG fluorescence) (SOSV minigenome [2]; 50 nM): 1.11; Minigenome activity (Relative ZsG fluorescence) (SOSV minigenome [2]; 500 nM): 1.17; Minigenome activity (Relative ZsG fluorescence) (SOSV minigenome [2]; 5000 nM): 1.05
33 | C[C@H](Cn1cnc2c(N)ncnc21)OCP(=O)(O)O [Tenofovir] | 110 | 106 | 107 | –
34 | Cc1cn([C@H]2C[C@H](N=[N+]=[N-])[C@@H](CO)O2)c(=O)[nH]c1=O [Zidovudine] | 123 | 93 | 113 | –
